Values of other authors, collected in PMC12281572.
Values joined by “and” are separate entries in the source; they are usually repeats but may differ in a detail not shown here. Identical values can stand only once.

Assay: FTIR, 4-fluorophenol as donor (the pK_BHX database, per the paper)
Details: CCl4; 25 C

Row | SMILES | pK_BHX (log10 Kf of the 1:1 H-bond complex with 4-fluorophenol, by FTIR)
1 | CC(C)(C)Cl | -0.28 log units
2 | CN(C)C=Nc1ccccc1Br | 1.37 log units
3 | c1ccc(C(c2ccccc2)c2ccccc2)cc1 | -0.5 log units
4 | CC(C)(C)SC(C)(C)C | 0.4 log units
5 | Cc1cc(=O)cc(C)o1 | 2.5 log units
6 | c1ncn(C2CCCCC2)c1C1CCCCC1 | 3.12 log units
7 | c1ccc(N2CCCCC2)cc1 | 0.68 log units
8 | CC(=O)c1ccc([N+](=O)[O-])cc1 | 0.57 log units and 0.15 log units
9 | C1CCOCC1 | 1.23 log units
10 | Cc1ccc[n+]([O-])c1 | 2.92 log units
11 | N#Cc1ccc(-c2ccccc2)cc1 | 0.83 log units
12 | CCN(CC)c1ccncc1 | 2.89 log units
13 | C1CSCCS1 | -0.14 log units
14 | Cn1cccc1 | 0.23 log units
15 | FC(F)(F)c1cccc(C2=NCCC2)c1 | 1.52 log units
16 | O=C1CCCC1 | 1.27 log units
17 | CN(C)n1cccc1 | 0.23 log units
18 | Cc1ccc(NC(=Nc2ccccc2)c2ccccc2)cc1 | 1.47 log units
19 | Cc1ccc(N=CNc2ccc(C)cc2)cc1 | 2.22 log units
20 | COc1ccncc1 | 2.13 log units
21 | CN1CCCCC1 | 2.11 log units
22 | COC(=O)c1ccccc1 | 0.89 log units
23 | CCN(C=O)CC | 2.16 log units
24 | COC(=O)N(c1ccccc1)c1ccccc1 | 1.41 log units

Row | SMILES | pK_BHX (log10 Kf of the 1:1 H-bond complex with 4-fluorophenol, by FTIR)
25 | C#CCNC | 1.64 log units
26 | CN1CCCNC1=S | 2.0 log units
27 | c1cc2c3c(c1)CCCN3CCC2 | 0.39 log units
28 | CCN(C=C[N+](=O)[O-])CC | 1.58 log units
29 | CN(C)C=NC1CCCCC1 | 2.59 log units
30 | C#CC(=O)OCC | 0.63 log units
31 | CCOC(=O)C(F)(F)F | 0.08 log units
32 | CCN(CC)C(=O)C(C)(C)C | 2.13 log units
33 | NCCCCN | 2.21 log units
34 | CC(C)(C)C(=O)N(C1CCCCC1)C1CCCCC1 | 2.06 log units
35 | N#Cc1cc(Cl)cc(Cl)c1 | 0.52 log units
36 | NCc1cccc(C(F)(F)F)c1 | 1.43 log units
37 | CCN(C#N)CC | 1.63 log units
38 | c1ccsc1 | -0.5 log units
39 | CCC(=O)N(C)C | 2.36 log units
40 | CN(C)C=NC(=O)c1ccccc1 | 2.1 log units
41 | CCSC | 0.18 log units
42 | CC12CCC(CC1=S)C2(C)C (centres unmarked) | 0.34 log units
43 | N#Cc1cccc(C(F)(F)F)c1 | 0.53 log units
44 | O=C(C(=O)c1ccccc1)c1ccccc1 | 0.44 log units
45 | COc1ccc(C(=O)N(C)C)cc1 | 2.31 log units
46 | c1ccc(C2CCCN2)cc1 (centres unmarked) | 1.93 log units
47 | COC(=O)C1CC1 | 1.12 log units
48 | CSc1ccc(C(C)=O)cc1 | 1.21 log units

Row | SMILES | pK_BHX (log10 Kf of the 1:1 H-bond complex with 4-fluorophenol, by FTIR)
49 | C#Cc1ccccc1 | -0.44 log units and -0.6 log units
50 | Brc1ccccn1 | 1.03 log units
51 | CCCSC | 0.16 log units
52 | CCOC(=O)CC | 1.08 log units
53 | c1cc(N2CCCCC2)ccn1 | 2.68 log units
54 | CC(=O)C(C)=O | 0.23 log units
55 | FCCCF | -0.27 log units
56 | c1cnc2c(c1)ccc1cccnc12 | 3.1 log units
57 | Cc1ccc(C#N)cc1 | 0.88 log units
58 | CCOC(C)(C)C | 1.08 log units
59 | OC12CC3CC(CC(C3)C1)C2 | 1.27 log units
60 | C1CSCS1 | -0.38 log units
61 | CC1(C)CCC(C)(C)O1 | 1.43 log units
62 | CS(=O)c1ccccc1 (centres unmarked) | 2.24 log units
63 | Cc1cccc(NC(=Nc2ccccc2)c2ccccc2)c1 | 1.4 log units
64 | CN(C)C=NC(=S)SCc1ccccc1 | 1.1 log units
65 | c1ccc(-c2nc3ccccc3o2)cc1 | 1.18 log units
66 | CN(C)C(=O)c1ccc([N+](=O)[O-])cc1 | 1.9 log units
67 | CCN(CC)C(C)=O | 2.47 log units
68 | C1CCSC1 | 0.32 log units
69 | CC(=O)Nc1ccccc1 | 1.69 log units
70 | O=S(Cc1ccccc1)Cc1ccccc1 | 2.43 log units
71 | c1ccc2c(c1)CCO2 | 0.21 log units
72 | O | 0.65 log units

Row | SMILES | pK_BHX (log10 Kf of the 1:1 H-bond complex with 4-fluorophenol, by FTIR)
73 | COc1cccc(OC)c1 | -0.08 log units
74 | O=CN1CCCC1 | 2.31 log units
75 | COc1ccc(C)cc1 | 0.08 log units
76 | CCCCN1CCCC1 | 2.04 log units
77 | CCN(CC)c1ccc(N=O)cc1 | 1.33 log units
78 | CN(C)C(=S)c1ccccc1 | 1.02 log units
79 | C=CCNCC=C | 1.7 log units
80 | CCCCCl | -0.41 log units
81 | c1ccc2oncc2c1 | 0.68 log units
82 | Cc1cccc(N(C)C)c1 | 0.41 log units
83 | Clc1ccccn1 | 1.05 log units
84 | Clc1ccncc1 | 1.54 log units
85 | CN=C(c1ccccc1)N(C)C | 2.62 log units
86 | CCN(C)C | 2.17 log units
87 | O=C1CCCCCO1 | 1.63 log units
88 | Cc1ccc(N(C)C)cc1 | 0.69 log units
89 | CC(=O)c1cccc(C)c1 | 1.1 log units
90 | CCCCc1ccccn1 | 1.88 log units
91 | CCCO | 1.0 log units
92 | CN(C)C(=S)Cl | 0.5 log units
93 | CN1CCCCCC1=O | 2.53 log units
94 | CCN(CC(=O)N(CC)c1ccccc1)c1ccccc1 | 2.16 log units
95 | c1ccc2c(c1)Cc1ccccc1-2 | -0.38 log units
96 | IC1CCCCC1 | -0.32 log units

Row | SMILES | pK_BHX (log10 Kf of the 1:1 H-bond complex with 4-fluorophenol, by FTIR)
97 | CC(C)SC(C)C | 0.3 log units
98 | CC(=Nc1ccc(Br)cc1)Nc1ccc(C)cc1 | 1.58 log units
99 | CNC(=O)c1ccccc1 | 2.03 log units
100 | CS(C)=O | 2.54 log units
101 | Nc1ncccn1 | 1.55 log units
102 | CN(C)C=Nc1ccccc1 | 1.9 log units
103 | CN1CCCN(C)C1=O | 2.79 log units
104 | N#CC12CC3CC(CC(C3)C1)C2 | 1.0 log units
105 | CCN(CC)S(=O)(=O)N(CC)CC | 1.17 log units
106 | CCN(CC)CC | 1.98 log units
107 | Cc1cnc2c(ccc3c(C)c(C)cnc32)c1C | 3.46 log units
108 | CCN(CC)C(=O)N(CC)CC | 2.43 log units
109 | CN(C)C(=O)C12CC3CC(CC(C3)C1)C2 | 2.3 log units
110 | OCc1ccccc1 | 0.86 log units
111 | C1N2CN3CN1CN(C2)C3 | 1.33 log units
112 | c1cocn1 | 1.3 log units
113 | CC(=Nc1ccccc1)Nc1ccccc1 | 1.66 log units
114 | CCCCS(=O)(=O)CCCC | 1.22 log units
115 | CCOC(=O)C(C)C | 1.09 log units
116 | NC1CCCCC1 | 2.29 log units
